Data as given in patent publication US20100298141A1, “SUBSTITUTED PYRIDINE N-OXIDE HERBICIDES” (E. I. DU PONT DE NEMOURS AND COMPANY, priority 2007, published 2010).

Legend:
[1] = test system: common groundsel; assay: Test F preemergence test; type: in vivo, Senecio vulgaris; details: scale 0 to 100
Method in brief: (§1)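 Greenhouse screen: test chemical in surfactant-containing non-phytotoxic solvent applied preemergence to sown seeds or postemergence to sugarcane plants; after 14 to 21 days each species scored visually versus controls.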

[2] = test system: bermudagrass; assay: Test F preemergence test; type: in vivo, Cynodon dactylon; details: scale 0 to 100
Method in brief: as §1

[3] = test system: goosegrass; assay: Test F preemergence test; type: in vivo, Eleusine indica; details: scale 0 to 100
Method in brief: as §1

[4] = test system: Surinam grass; assay: Test F preemergence test; type: in vivo, Brachiaria decumbens; details: scale 0 to 100
Method in brief: as §1

[5] = test system: pitted morningglory; assay: Test F preemergence test; type: in vivo, Ipomoea lacunosa; details: scale 0 to 100
Method in brief: as §1

[6] = test system: southern sandbur; assay: Test F preemergence test; type: in vivo, Cenchrus echinatus; details: scale 0 to 100
Method in brief: as §1

[7] = test system: kochia; assay: Test F preemergence test; type: in vivo, Kochia scoparia; details: scale 0 to 100
Method in brief: as §1

[8] = test system: common purslane; assay: Test F preemergence test; type: in vivo, Portulaca oleracea; details: scale 0 to 100
Method in brief: as §1

[9] = test system: johnsongrass; assay: Test F preemergence test; type: in vivo, Sorghum halepense; details: scale 0 to 100
Method in brief: as §1

[10] = test system: naked crabgrass; assay: Test F preemergence test; type: in vivo, Digitaria nuda; details: scale 0 to 100
Method in brief: as §1

[11] = test system: quackgrass; assay: Test F preemergence test; type: in vivo, Elytrigia repens; details: scale 0 to 100
Method in brief: as §1

[12] = test system: guineagrass; assay: Test F preemergence test; type: in vivo, Panicum maximum; details: scale 0 to 100
Method in brief: as §1

[13] = test system: purple nutsedge; assay: Test F preemergence test; type: in vivo, Cyperus rotundus; details: scale 0 to 100
Method in brief: as §1

[14] = test system: large crabgrass; assay: Test F preemergence test; type: in vivo, Digitaria sanguinalis; details: scale 0 to 100
Method in brief: as §1

[15] = test system: Russian thistle; assay: Test C pre-/postemergence test; type: in vivo, Salsola kali; details: Preemergence
Source text: Seeds of plant species selected from blackgrass (Alopecurus myosuroides), downy brome (Bromus tectorum), green foxtail (Setaria viridis), Italian ryegrass (Lolium multiflorum), wheat (Triticum aestivum), wild oat (Avena fatua), catchweed bedstraw (Galium aparine), Russian thistle (Salsola kali), […] (Cynodon dactylon), Surinam grass (Brachiaria decumbens), cocklebur (Xanthium strumarium), corn (Zea mays), crabgrass (Digitaria sanguinalis), woolly cupgrass (Eriochloa villosa), giant foxtail (Setaria faberii), Goosegrass (Eleusin indica), johnsongrass (Sorghum halepense), kochia (Kochia scoparia), lambsquarters (Chenopodium album), morningglory (Ipomoea coccinea), eastern black nightshade (Solanum ptycanthum), yellow nutsedge (Cyperus esculentus), pigweed (Amaranthus retroflexus), common ragweed (Ambrosia elation), soybean (Glycine max), common (oilseed) sunflower (Helianthus annuus), and velvetleaf (Abutilon theophrasti) were planted and treated preemergence with test chemicals formulated in a non-phytotoxic solvent mixture which included a surfactant. At the same time, plants selected from these crop and weed species and also winter barley (Hordeum vulgare), canarygrass (Phalaris minor), and chickweed (Stellaria media) were treated with postemergence applications of some of the test chemicals formulated in the same manner. Plants ranged in height from 2 to 18 cm (1- to 4-leaf stage) for postemergence treatments. […] At time of treatment, test pots were flooded to 3 cm above the soil surface, treated by application of test compounds directly to the paddy water, and then maintained at that water depth for the duration of the test. […] A dash (-) response means no test result.

[16] = test system: prickly sida; assay: Test F preemergence test; type: in vivo, Sida spinosa; details: scale 0 to 100
Method in brief: as §1

[17] = test system: Italian ryegrass; assay: Test F preemergence test; type: in vivo, Lolium multiflorum; details: scale 0 to 100
Method in brief: as §1

[18] = test system: common ragweed; assay: Test F preemergence test; type: in vivo, Ambrosia elation; details: scale 0 to 100
Method in brief: as §1

`Cc1cc[n+]([O-])c(S(=O)(=O)C(Cl)c2c(C(F)(F)F)nn(C)c2Cl)c1` (racemic) [Compound 22] was tested, and the “Groundsel plant response rating” value ([1]; 62 g ai/ha, Preemergence) was 50, the “Groundsel plant response rating” value ([1]; 125 g ai/ha, preemergence) was 98 and the “Plant response rating, Groundsel” value ([1]; Preemergence, 16 g ai/ha) was 0. The “Plant response rating, Groundsel” value ([1]; Preemergence, 31 g ai/ha) was 50, the “Bermudagrass plant response rating” value ([2]; 62 g ai/ha, Preemergence) was 80 and the “Bermudagrass plant response rating” value ([2]; 125 g ai/ha, preemergence) was 90. For the same compound, the “Plant response rating, Bermudagrass” value ([2]; Preemergence, 16 g ai/ha) was 0, the “Plant response rating, Bermudagrass” value ([2]; Preemergence, 31 g ai/ha) was 35 and the “Goosegrass plant response rating” value ([3]; 62 g ai/ha, Preemergence) was 80. The “Goosegrass plant response rating” value ([3]; 125 g ai/ha, preemergence) was 98, the “Plant response rating, Goosegrass” value ([3]; Preemergence, 16 g ai/ha) was 65 and the “Plant response rating, Goosegrass” value ([3]; Preemergence, 31 g ai/ha) was 65. The “Surinam Grass plant response rating” value ([4]; 62 g ai/ha, Preemergence) was 65, the “Surinam Grass plant response rating” value ([4]; 125 g ai/ha, preemergence) was 90 and the “Plant response rating, Surinam Grass” value ([4]; Preemergence, 31 g ai/ha) was 0. For the same compound, the “Morningglory plant response rating” value ([5]; 62 g ai/ha, Preemergence) was 0, the “Morningglory plant response rating” value ([5]; 125 g ai/ha, preemergence) was 20 and the “Plant response rating, Morningglory” value ([5]; Preemergence, 16 g ai/ha) was 0. For the same compound, the “Plant response rating, Morningglory” value ([5]; Preemergence, 31 g ai/ha) was 0, the “Sandbur plant response rating” value ([6]; 62 g ai/ha, Preemergence) was 75 and the “Sandbur plant response rating” value ([6]; 125 g ai/ha, preemergence) was 98. For the same compound, the “Plant response rating, Sandbur” value ([6]; Preemergence, 31 g ai/ha) was 65, the “Kochia plant response rating” value ([7]; 62 g ai/ha, Preemergence) was 100 and the “Kochia plant response rating” value ([7]; 125 g ai/ha, preemergence) was 98. The “Plant response rating, Kochia” value ([7]; Preemergence, 16 g ai/ha) was 98, the “Plant response rating, Kochia” value ([7]; Preemergence, 31 g ai/ha) was 100 and the “Purslane plant response rating” value ([8]; 62 g ai/ha, Preemergence) was 30. The “Purslane plant response rating” value ([8]; 125 g ai/ha, preemergence) was 90, the “Plant response rating, Purslane” value ([8]; Preemergence, 16 g ai/ha) was 0 and the “Plant response rating, Purslane” value ([8]; Preemergence, 31 g ai/ha) was 30. The “Johnsongrass plant response rating” value ([9]; 62 g ai/ha, Preemergence) was 60, the “Johnsongrass plant response rating” value ([9]; 125 g ai/ha, preemergence) was 100 and the “Plant response rating, Johnsongrass” value ([9]; Preemergence, 16 g ai/ha) was 0. For the same compound, the “Plant response rating, Johnsongrass” value ([9]; Preemergence, 31 g ai/ha) was 50, the “Crabgrass, Naked plant response rating” value ([10]; 62 g ai/ha, Preemergence) was 80 and the “Crabgrass, Naked plant response rating” value ([10]; 125 g ai/ha, preemergence) was 100. The “Plant response rating, Crabgrass, Naked” value ([10]; Preemergence, 16 g ai/ha) was 40, the “Plant response rating, Crabgrass, Naked” value ([10]; Preemergence, 31 g ai/ha) was 75 and the “Quackgrass plant response rating” value ([11]; 62 g ai/ha, Preemergence) was 20. The “Quackgrass plant response rating” value ([11]; 125 g ai/ha, preemergence) was 60, the “Plant response rating, Quackgrass” value ([11]; Preemergence, 16 g ai/ha) was 0 and the “Plant response rating, Quackgrass” value ([11]; Preemergence, 31 g ai/ha) was 10. The “Guineagrass plant response rating” value ([12]; 62 g ai/ha, Preemergence) was 90, the “Guineagrass plant response rating” value ([12]; 125 g ai/ha, preemergence) was 100 and the “Plant response rating, Guineagrass” value ([12]; Preemergence, 16 g ai/ha) was 60. The “Plant response rating, Guineagrass” value ([12]; Preemergence, 31 g ai/ha) was 80, the “Purple Nutsedge plant response rating” value ([13]; 62 g ai/ha, Preemergence) was 50 and the “Purple Nutsedge plant response rating” value ([13]; 125 g ai/ha, preemergence) was 60. The “Plant response rating, Purple Nutsedge” value ([13]; Preemergence, 16 g ai/ha) was 0, the “Plant response rating, Purple Nutsedge” value ([13]; Preemergence, 31 g ai/ha) was 15 and the “Crabgrass, Large plant response rating” value ([14]; 62 g ai/ha, Preemergence) was 70. For the same compound, the “Crabgrass, Large plant response rating” value ([14]; 125 g ai/ha, preemergence) was 70, the “Plant response rating, Crabgrass, Large” value ([14]; Preemergence, 16 g ai/ha) was 0 and the “Plant response rating, Crabgrass, Large” value ([14]; Preemergence, 31 g ai/ha) was 50. The “Russian Thistle plant response rating” value ([15]; 62 g ai/ha, scale 0 to 100) was 100, the “Plant response rating, Russian Thistle” value ([15]; 31 g ai/ha, scale 0 to 100 (0 no effect, 100 complete control)) was 100 and the “Prickly Sida plant response rating” value ([16]; 62 g ai/ha, Preemergence) was 40. For the same compound, the “Prickly Sida plant response rating” value ([16]; 125 g ai/ha, preemergence) was 80, the “Plant response rating, Prickly Sida” value ([16]; Preemergence, 16 g ai/ha) was 0 and the “Plant response rating, Prickly Sida” value ([16]; Preemergence, 31 g ai/ha) was 40. For the same compound, the “Ryegrass, Italian plant response rating” value ([17]; 62 g ai/ha, Preemergence) was 70, the “Ryegrass, Italian plant response rating” value ([17]; 125 g ai/ha, preemergence) was 70 and the “Plant response rating, Ryegrass, Italian” value ([17]; Preemergence, 16 g ai/ha) was 0. For the same compound, the “Plant response rating, Ryegrass, Italian” value ([17]; Preemergence, 31 g ai/ha) was 20, the “Ragweed plant response rating” value ([18]; 62 g ai/ha, Preemergence) was 50 and the “Ragweed plant response rating” value ([18]; 125 g ai/ha, preemergence) was 80. The “Plant response rating, Ragweed” value ([18]; Preemergence, 16 g ai/ha) was 0 and the “Plant response rating, Ragweed” value ([18]; Preemergence, 31 g ai/ha) was 0.
